Experimental data from ChEMBL document CHEMBL5154879, “Induction of Genes Implicated in Stress Response and Autophagy by a Novel Quinolin-8-yl-nicotinamide QN523 in Pancreatic Cancer” (J Med Chem, 2022).
Active and inactive are the calls of the source. The rule behind the calls is not given here.

How the values were obtained:
MIA PaCa-2 [1] = assay: Induction of UPR pathway in human MIA PaCa-2 cells by ingenuity pathway analysis; format: functional, cell-based
MIA PaCa-2 [2] = assay: Induction of apoptosis in human MIA PaCa-2 cells assessed as necrotic cells at 0.1 uM incubated for 48 hrs by Annexin V-FITC/PI staining based flow cytometry analysis (reference value: 1.07%); format: functional
[3] = Upregulation of SLFN5 gene expression in human MIA PaCa-2 cells assessed as fold change in SLFN5 expression at 1 uM incubated for 24 hrs by Bru-seq analysis relative to control; format: functional
MIA PaCa-2 [4] = assay: Induction of cell cycle arrest in human MIA PaCa-2 cells assessed as accumulation of cells in G0/G1 phase at 0.1 uM incubated for 24 hrs by RNase/propidium iodide staining based flow cytometry analysis (reference value: 64.3%); format: functional
MIA PaCa-2 [5] = assay: Upregulation of stress response gene expression in human MIA PaCa-2 cells; format: functional, cell-based
MIA PaCa-2 [6] = assay: Upregulation of GDF15 gene expression in human MIA PaCa-2 cells incubated for 72 hrs by Western blot analysis; format: functional, cell-based; conditions: dose <= 600.0 µM, DDE = dose-dependent effect
MIA PaCa-2 [7] = assay: Induction of autophagy in human MIA PaCa-2 cells assessed as accumulation of LC3B marker gene expression at upto 2 uM incubated for 72 hrs by Western blot analysis; format: functional, cell-based
[8] = Downregulation of GTSEI gene expression in human MIA PaCa-2 cells assessed as fold change in GTSEI expression at 1 uM incubated for 24 hrs by Bru-seq analysis relative to control; format: functional
HCT-116 = assay: Antiproliferative activity against human HCT-116 cells assessed as inhibition of cell growth incubated for 72 hrs by MTT assay; format: functional, cell-based; conditions: HCT-116, 72 h
[9] = Downregulation of P1F1 gene expression in human MIA PaCa-2 cells assessed as fold change in P1F1 expression at 1 uM incubated for 24 hrs by Bru-seq analysis relative to control; format: functional
[10] = Downregulation of HMG20B gene expression in human MIA PaCa-2 cells assessed as fold change in HMG20B expression at 1 uM incubated for 24 hrs by Bru-seq analysis relative to control; format: functional
MIA PaCa-2 [11] = assay: Induction of ER stress pathway in human MIA PaCa-2 cells by ingenuity pathway analysis; format: functional, cell-based
MIA PaCa-2 [12] = assay: Induction of apoptosis in human MIA PaCa-2 cells assessed as necrotic cells at 0.5 uM incubated for 24 hrs by Annexin V-FITC/PI staining based flow cytometry analysis (reference value: 2.7%); format: functional
MIA PaCa-2 [13] = assay: Induction of apoptosis in human MIA PaCa-2 cells assessed as necrotic cells at 0.1 uM incubated for 24 hrs by Annexin V-FITC/PI staining based flow cytometry analysis (reference value: 2.7%); format: functional
MIA PaCa-2 [14] = assay: Additive autophagy activity in human MIA PaCa-2 cells assessed as inhibition of colony formation at 0.001 to 0.1 uM incubated for 7 days in presence of autophagy inhibitor chloroquine by crystal violet staining based assay; format: functional, cell-based; conditions: dose 0.001-0.1 µM, time 7.0 day
MIA PaCa-2 [15] = assay: Induction of cell cycle arrest in human MIA PaCa-2 cells assessed as accumulation of cells at S phase at 0.5 uM incubated for 48 hrs by RNase/propidium iodide staining based flow cytometry analysis (Rvb =26.9 %); format: functional
MIA PaCa-2 [16] = assay: Induction of apoptosis in human MIA PaCa-2 cells assessed as viable cells at 0.1 uM incubated for 24 hrs by Annexin V-FITC/PI staining based flow cytometry analysis (reference value: 90.2%); format: functional; conditions: read-out: Activity
[17] = Upregulation of ATF3 gene expression in human MIA PaCa-2 cells assessed as fold change in ATF3 expression at 1 uM incubated for 24 hrs by Bru-seq analysis relative to control; format: functional
[18] = Downregulation of PLKI gene expression in human MIA PaCa-2 cells assessed as fold change in PLKI expression at 1 uM incubated for 24 hrs by Bru-seq analysis relative to control; format: functional
MIA PaCa-2 [19] = assay: Induction of apoptosis in human MIA PaCa-2 cells assessed as early apoptotic cells at 0.5 uM incubated for 48 hrs by Annexin V-FITC/PI staining based flow cytometry analysis (reference value: 1.8%); format: functional
[20] = Downregulation of CCDC85C gene expression in human MIA PaCa-2 cells assessed as fold change in CCDC85C expression at 1 uM incubated for 24 hrs by Bru-seq analysis relative to control; format: functional
MIA PaCa-2 [21] = assay: Upregulation of apoptotic gene expression in human MIA PaCa-2 cells by gene set enrichment analysis; format: functional, cell-based
MIA PaCa-2 [22] = assay: Induction of cell cycle arrest in human MIA PaCa-2 cells assessed as accumulation of cells in G2/M phase at 0.5 uM incubated for 24 hrs by RNase/propidium iodide staining based flow cytometry analysis (reference value: 8.11%); format: functional
SNU-449 = assay: Antiproliferative activity against human SNU-449 cells assessed as inhibition of cell growth incubated for 72 hrs by MTT assay; format: functional, cell-based; conditions: SNU-449, 72 h
[23] = Downregulation of SEMA4C gene expression in human MIA PaCa-2 cells assessed as fold change in SEMA4C expression at 1 uM incubated for 24 hrs by Bru-seq analysis relative to control; format: functional
MIA PaCa-2 [24] = assay: Induction of apoptosis in human MIA PaCa-2 cells assessed as viable cells at 0.5 uM incubated for 48 hrs by Annexin V-FITC/PI staining based flow cytometry analysis (reference value: 96.3%); format: functional; conditions: read-out: Activity
[25] = Downregulation of LMNB2 gene expression in human MIA PaCa-2 cells assessed as fold change in LMNB2 expression at 1 uM incubated for 24 hrs by Bru-seq analysis relative to control; format: functional
[26] = Toxicity in NOD/SCID mouse xenografted with human MIA PaCa-2 cells assessed as lethargy at 10 to 20 mg/kg, ip administered five times a week for 44 days; format: organism-based; conditions: in vivo, 1056 h, dose 10-20 mg/kg, time 44 day
MIA PaCa-2 [27] = assay: Synergistic autophagy activity in human MIA PaCa-2 cells assessed as inhibition of colony formation at 0.001 to 0.1 uM incubated for 7 days in presence of autophagy inhibitor chloroquine by crystal violet staining based assay; format: functional, cell-based; conditions: dose 0.001-0.1 µM, time 7.0 day
[28] = Toxicity in NOD/SCID mouse xenografted with human MIA PaCa- 2 cells assessed as morphological changes in heart at 10 to 20 mg/kg, ip administered five times a week for 44 days by H and E staining based inverted microscopic analysis; format: organism-based; conditions: in vivo, 1056 h, dose 10-20 mg/kg, time 44 day
MIA PaCa-2 [29] = assay: Induction of cell cycle arrest in human MIA PaCa-2 cells assessed as accumulation of cells in G2/M phase at 0.1 uM incubated for 48 hrs by RNase/propidium iodide staining based flow cytometry analysis (reference value: 2.71%); format: functional
MIA PaCa-2 [30] = assay: Induction of apoptosis in human MIA PaCa-2 cells assessed as early apoptotic cells at 0.5 uM incubated for 24 hrs by Annexin V-FITC/PI staining based flow cytometry analysis (reference value: 5.1%); format: functional
MIA PaCa-2 [31] = assay: Induction of cell cycle arrest in human MIA PaCa-2 cells assessed as accumulation of cells in G0/G1 phase at 0.5 uM incubated for 24 hrs by RNase/propidium iodide staining based flow cytometry analysis (reference value: 64.3%); format: functional

With `O=C(Nc1cccc2cccnc12)c1cnccn1` the Activity (MIA PaCa-2 [1]) was “Active”, the Activity (MIA PaCa-2 [2]) was 1.1% and the “fold change (FC)” value [3] was 10.3. For the same compound, the Activity (MIA PaCa-2 [4]) was 52%, the Activity (MIA PaCa-2 [5]) was “Active” and the Activity (MIA PaCa-2 [6]) was “Dde”. For the same compound, the Activity (MIA PaCa-2 [7]) was “Active”, the “fold change (FC)” value [8] was 0.46 and the IC50 (HCT-116) was 100 nM. The “fold change (FC)” value [9] was 0.28, the “fold change (FC)” value [10] was 0.33 and the Activity (MIA PaCa-2 [11]) was “Active”. For the same compound, the Activity (MIA PaCa-2 [12]) was 1.4%, the Activity (MIA PaCa-2 [13]) was 2.2% and the Activity (MIA PaCa-2 [14]) was “Active”. For the same compound, the Activity (MIA PaCa-2 [15]) was 57.3%, the viability at 0.1 µM (MIA PaCa-2 [16]) was 84.9% and the “fold change (FC)” value [17] was 22. For the same compound, the “fold change (FC)” value [18] was 0.47, the Activity (MIA PaCa-2 [19]) was 2.2% and the “fold change (FC)” value [20] was 0.42. For the same compound, the Activity (MIA PaCa-2 [21]) was “Active”, the Activity (MIA PaCa-2 [22]) was 10.5% and the IC50 (SNU-449) was 400 nM. For the same compound, the “fold change (FC)” value [23] was 0.39, the viability at 0.5 µM (MIA PaCa-2 [24]) was 95.3% and the “fold change (FC)” value [25] was 0.46. For the same compound, the Activity [26] was “Non-Toxic”, the Activity (MIA PaCa-2 [27]) was “Active” and the Activity [28] was “Non-Toxic”. For the same compound, the Activity (MIA PaCa-2 [29]) was 8.22%, the Activity (MIA PaCa-2 [30]) was 10.1% and the Activity (MIA PaCa-2 [31]) was 44.5%.
